Converted amounts (≈) assume the structure as drawn. Read-outs that look alike come from different tables or passages of the source.
Legend:
[1] = cited from earlier work
[2] = cited from earlier work; remark: listed apart in the source
[3] = Equilibrium (apparent) solubility of APR, shake flask method; format: physicochemical; details: for solubility at 24 h: thermodynamic from solid
Method: The solubility of APR in various buffers, oils, surfactants, cosurfactants, cosolvents, and formulations was measured using the shake flask method. Briefly, an excess APR was added into a polypropylene tube that contains a medium. Tube mixed by a vortex (Daihan VM-10, South Korea) for 1 min to disperse APR. Mixtures were shaken at 100 rpm for 24 h at various temperatures in a thermostatically controlled shaking water bath (Nüve ST30, Turkey). Mixtures were then centrifuged at 13,500 rpm (12,225× g) for 15 min. The supernatant samples were suitably diluted with the mobile phase. Drug concentration was obtained via the validated HPLC method.
Saturated SNEDDS were prepared by adding excess APR into blank preconcentrates and then precipitate the insoluble part of APR. Briefly, SNEDDS and excess APR mixtures were shaken at 100 rpm for 24 h at 37 °C in a shaking water bath. Mixtures were then centrifuged at 13,500 rpm (12,225× g) for 15 min. The supernatant was separated carefully to obtain saturated SNEDDS.

Compound: C[C@@H](O[C@H]1OCCN(Cc2nc(=O)[nH][nH]2)[C@H]1c1ccc(F)cc1)c1cc(C(F)(F)F)cc(C(F)(F)F)c1 [APR, 5-(((2R,3S)-2-((1R)-1-(3,5-bis(trifluoromethyl)phenyl)ethoxy)-3-(4-fluorophenyl)4-morpholinyl)methyl)-1,2-dihydro-3H-1,2,4-triazol-3-one]
- solubility in acetonitrile ([1]; acetonitrile): slightly soluble
- logP ([1]; at neutral pH): 4.8
- permeability [1]: moderate
- solubility in ethanol ([1]; ethanol): sparingly soluble
- solubility in isopropyl acetate ([1]; isopropyl acetate): sparingly soluble
- pKa ([1]; ref 5): 9.7
- Biopharmaceutical Classification System (BCS) class ([1]; ref 7): Class II
- Biopharmaceutical Classification System (BCS) class ([1]; ref 8): Class IV
- solubility in water ([1]; water): practically insoluble
- mean oral bioavailability ([2]; 80 mg Emend capsule): 67%
- mean oral bioavailability ([2]; 125 mg Emend capsule): 59%
- time to maximum plasma concentration (Tmax) ([2]; in vivo): 240 min
- time of mean peak plasma concentration ([2]; ref 14): approximately 4 h
- solubility at 24 h ([3]; 37 °C, organic solvent or mixture, Imwitor 988:Kolliphor RH40:Transcutol P (%) 20:60:20, 37 °C, read-out: APR solubility (loading capacity of SNEDDS preconcentrate)): 21600 µg/mL (≈ 40.5 mM)
- solubility at 24 h ([3]; 37 °C, organic solvent or mixture, Imwitor 988:Kolliphor RH40:Transcutol P (%) 30:10:60, 37 °C, read-out: APR solubility (loading capacity of SNEDDS preconcentrate)): 55300 µg/mL (≈ 104 mM)
- solubility at 24 h ([3]; Brij O10 (surfactant), 25 °C, aqueous with cosolvent or surfactant or cyclodextrin, surfactant Brij O10, 25 °C, read-out: APR solubility): 9870 µg/mL (≈ 18.5 mM)
- solubility at 24 h ([3]; Capryol 90 (cosurfactant), 25 °C, organic solvent or mixture, cosurfactant Capryol 90, 25 °C, read-out: APR solubility): 17000 µg/mL (≈ 31.8 mM)
- solubility at 24 h ([3]; Castor oil (oily excipient), 25 °C, oil or lipid, oily excipient Castor oil, 25 °C, read-out: APR solubility): 2920 µg/mL (≈ 5.47 mM)
- solubility at 24 h ([3]; Cinnamon oil (oily excipient), 25 °C, oil or lipid, oily excipient Cinnamon oil, 25 °C, read-out: APR solubility): 8470 µg/mL (≈ 15.8 mM)
- solubility at 24 h ([3]; Eucalyptus oil (oily excipient), 25 °C, oil or lipid, oily excipient Eucalyptus oil, 25 °C, read-out: APR solubility): 6840 µg/mL (≈ 12.8 mM)
- solubility at 24 h ([3]; Glycerine (cosolvent), 25 °C, organic solvent or mixture, cosolvent Glycerine, 25 °C, read-out: APR solubility): 13 µg/mL (≈ 0.0243 mM)
- solubility at 24 h ([3]; Imwitor 988 (oily excipient), 25 °C, oil or lipid, oily excipient Imwitor 988, 25 °C, read-out: APR solubility): 19800 µg/mL (≈ 37 mM)
- solubility at 24 h ([3]; Kolliphor ELP (surfactant), 25 °C, aqueous with cosolvent or surfactant or cyclodextrin, surfactant Kolliphor ELP, 25 °C, read-out: APR solubility): 4230 µg/mL (≈ 7.92 mM)
- solubility at 24 h ([3]; Kolliphor HS15 (surfactant), 25 °C, aqueous with cosolvent or surfactant or cyclodextrin, surfactant Kolliphor HS15, 25 °C, read-out: APR solubility): 7160 µg/mL (≈ 13.4 mM)
- solubility at 24 h ([3]; Kolliphor RH40 (surfactant), 25 °C, aqueous with cosolvent or surfactant or cyclodextrin, surfactant Kolliphor RH40, 25 °C, read-out: APR solubility): 8980 µg/mL (≈ 16.8 mM)
- solubility at 24 h ([3]; Kollisolv GTA (oily excipient), 25 °C, oil or lipid, oily excipient Kollisolv GTA, 25 °C, read-out: APR solubility): 3150 µg/mL (≈ 5.89 mM)
- solubility at 24 h ([3]; Kollisolv P124 (surfactant), 25 °C, aqueous with cosolvent or surfactant or cyclodextrin, surfactant Kollisolv P124, 25 °C, read-out: APR solubility): 10700 µg/mL (≈ 20 mM)
- solubility at 24 h ([3]; Labrafac PG (oily excipient), 25 °C, oil or lipid, oily excipient Labrafac PG, 25 °C, read-out: APR solubility): 427 µg/mL (≈ 0.799 mM)
- solubility at 24 h ([3]; Labrafac lipophile WL 1349 (oily excipient), 25 °C, oil or lipid, oily excipient Labrafac lipophile WL 1349, 25 °C, read-out: APR solubility): 282 µg/mL (≈ 0.528 mM)
- solubility at 24 h ([3]; Labrafil M 1944 CS (surfactant), 25 °C, aqueous with cosolvent or surfactant or cyclodextrin, surfactant Labrafil M 1944 CS, 25 °C, read-out: APR solubility): 3500 µg/mL (≈ 6.55 mM)
- solubility at 24 h ([3]; Labrafil M 2125 CS (surfactant), 25 °C, aqueous with cosolvent or surfactant or cyclodextrin, surfactant Labrafil M 2125 CS, 25 °C, read-out: APR solubility): 2840 µg/mL (≈ 5.32 mM)
- solubility at 24 h ([3]; Labrasol (surfactant), 25 °C, aqueous with cosolvent or surfactant or cyclodextrin, surfactant Labrasol, 25 °C, read-out: APR solubility): 15900 µg/mL (≈ 29.8 mM)
- solubility at 24 h ([3]; Lauroglycol 90 (cosurfactant), 25 °C, organic solvent or mixture, cosurfactant Lauroglycol 90, 25 °C, read-out: APR solubility): 9320 µg/mL (≈ 17.4 mM)
- solubility at 24 h ([3]; Lauroglycol FCC (cosurfactant), 25 °C, organic solvent or mixture, cosurfactant Lauroglycol FCC, 25 °C, read-out: APR solubility): 14200 µg/mL (≈ 26.6 mM)
- solubility at 24 h ([3]; Lemon oil (oily excipient), 25 °C, oil or lipid, oily excipient Lemon oil, 25 °C, read-out: APR solubility): 3090 µg/mL (≈ 5.79 mM)
- solubility at 24 h ([3]; Maisine CC (oily excipient), 25 °C, oil or lipid, oily excipient Maisine CC, 25 °C, read-out: APR solubility): 5360 µg/mL (≈ 10 mM)
- solubility at 24 h ([3]; Miglyol 812 (oily excipient), 25 °C, oil or lipid, oily excipient Miglyol 812, 25 °C, read-out: APR solubility): 299 µg/mL (≈ 0.559 mM)
- solubility at 24 h ([3]; Miglyol 840 (oily excipient), 25 °C, oil or lipid, oily excipient Miglyol 840, 25 °C, read-out: APR solubility): 1590 µg/mL (≈ 2.97 mM)
- solubility at 24 h ([3]; Oleic acid (oily excipient), 25 °C, oil or lipid, oily excipient Oleic acid, 25 °C, read-out: APR solubility): 8480 µg/mL (≈ 15.9 mM)
- solubility at 24 h ([3]; Olive Yağı (oily excipient), 25 °C, oil or lipid, oily excipient Olive Yağı, 25 °C, read-out: APR solubility): 181 µg/mL (≈ 0.339 mM)
- solubility at 24 h ([3]; PEG 200 (cosolvent), 25 °C, organic solvent or mixture, cosolvent PEG 200, 25 °C, read-out: APR solubility): 11700 µg/mL (≈ 21.9 mM)
- solubility at 24 h ([3]; PEG 400 (cosolvent), 25 °C, organic solvent or mixture, cosolvent PEG 400, 25 °C, read-out: APR solubility): 12000 µg/mL (≈ 22.5 mM)
- solubility at 24 h ([3]; Peceol (oily excipient), 25 °C, oil or lipid, oily excipient Peceol, 25 °C, read-out: APR solubility): 7780 µg/mL (≈ 14.5 mM)
- solubility at 24 h ([3]; Peppermint oil (oily excipient), 25 °C, oil or lipid, oily excipient Peppermint oil, 25 °C, read-out: APR solubility): 16600 µg/mL (≈ 31 mM)
- solubility at 24 h ([3]; Plurol Oleique CC 497 (cosurfactant), 25 °C, organic solvent or mixture, cosurfactant Plurol Oleique CC 497, 25 °C, read-out: APR solubility): 4140 µg/mL (≈ 7.75 mM)
- solubility at 24 h ([3]; Propylene glycol (cosolvent), 25 °C, organic solvent or mixture, cosolvent Propylene glycol, 25 °C, read-out: APR solubility): 8380 µg/mL (≈ 15.7 mM)
- solubility at 24 h ([3]; Sesame oil (oily excipient), 25 °C, oil or lipid, oily excipient Sesame oil, 25 °C, read-out: APR solubility): 2230 µg/mL (≈ 4.17 mM)
- solubility at 24 h ([3]; Transcutol P (cosolvent), 25 °C, organic solvent or mixture, cosolvent Transcutol P, 25 °C, read-out: APR solubility): 46500 µg/mL (≈ 87 mM)
- solubility at 24 h ([3]; Tween 20 (surfactant), 25 °C, aqueous with cosolvent or surfactant or cyclodextrin, surfactant Tween 20, 25 °C, read-out: APR solubility): 7820 µg/mL (≈ 14.6 mM)
- solubility at 24 h ([3]; Tween 60 (surfactant), 25 °C, aqueous with cosolvent or surfactant or cyclodextrin, surfactant Tween 60, 25 °C, read-out: APR solubility): 5040 µg/mL (≈ 9.44 mM)
- solubility at 24 h ([3]; Tween 80 (surfactant), 25 °C, aqueous with cosolvent or surfactant or cyclodextrin, surfactant Tween 80, 25 °C, read-out: APR solubility): 2140 µg/mL (≈ 4 mM)
- solubility at 24 h ([3]; blank SNEDDS preconcentrate, 37 °C, organic solvent or mixture, Imwitor 988:Kolliphor RH40:Transcutol P (%) 10:30:60, 37 °C, read-out: APR solubility (loading capacity of SNEDDS preconcentrate)): 43100 µg/mL (≈ 80.7 mM)
- solubility at 24 h ([3]; blank SNEDDS preconcentrate, 37 °C, organic solvent or mixture, Imwitor 988:Kolliphor RH40:Transcutol P (%) 10:40:50, 37 °C, read-out: APR solubility (loading capacity of SNEDDS preconcentrate)): 34600 µg/mL (≈ 64.7 mM)
- solubility at 24 h ([3]; blank SNEDDS preconcentrate, 37 °C, organic solvent or mixture, Imwitor 988:Kolliphor RH40:Transcutol P (%) 10:50:40, 37 °C, read-out: APR solubility (loading capacity of SNEDDS preconcentrate)): 26900 µg/mL (≈ 50.4 mM)
- solubility at 24 h ([3]; blank SNEDDS preconcentrate, 37 °C, organic solvent or mixture, Imwitor 988:Kolliphor RH40:Transcutol P (%) 10:60:30, 37 °C, read-out: APR solubility (loading capacity of SNEDDS preconcentrate)): 22900 µg/mL (≈ 42.9 mM)
- solubility at 24 h ([3]; blank SNEDDS preconcentrate, 37 °C, organic solvent or mixture, Imwitor 988:Kolliphor RH40:Transcutol P (%) 10:70:20, 37 °C, read-out: APR solubility (loading capacity of SNEDDS preconcentrate)): 18800 µg/mL (≈ 35.2 mM)
- solubility at 24 h ([3]; blank SNEDDS preconcentrate, 37 °C, organic solvent or mixture, Imwitor 988:Kolliphor RH40:Transcutol P (%) 10:80:10, 37 °C, read-out: APR solubility (loading capacity of SNEDDS preconcentrate)): 15500 µg/mL (≈ 28.9 mM)
- solubility at 24 h ([3]; blank SNEDDS preconcentrate, 37 °C, organic solvent or mixture, Imwitor 988:Kolliphor RH40:Transcutol P (%) 20:10:70, 37 °C, read-out: APR solubility (loading capacity of SNEDDS preconcentrate)): 51000 µg/mL (≈ 95.4 mM)
- solubility at 24 h ([3]; blank SNEDDS preconcentrate, 37 °C, organic solvent or mixture, Imwitor 988:Kolliphor RH40:Transcutol P (%) 20:40:40, 37 °C, read-out: APR solubility (loading capacity of SNEDDS preconcentrate)): 29000 µg/mL (≈ 54.3 mM)
- solubility at 24 h ([3]; blank SNEDDS preconcentrate, 37 °C, organic solvent or mixture, Imwitor 988:Kolliphor RH40:Transcutol P (%) 20:50:30, 37 °C, read-out: APR solubility (loading capacity of SNEDDS preconcentrate)): 23500 µg/mL (≈ 44 mM)
- solubility at 24 h ([3]; blank SNEDDS preconcentrate, 37 °C, organic solvent or mixture, Imwitor 988:Kolliphor RH40:Transcutol P (%) 20:70:10, 37 °C, read-out: APR solubility (loading capacity of SNEDDS preconcentrate)): 15800 µg/mL (≈ 29.6 mM)
- solubility at 24 h ([3]; blank SNEDDS preconcentrate, 37 °C, organic solvent or mixture, Imwitor 988:Kolliphor RH40:Transcutol P (%) 30:20:50, 37 °C, read-out: APR solubility (loading capacity of SNEDDS preconcentrate)): 45100 µg/mL (≈ 84.3 mM)
- solubility at 24 h ([3]; blank SNEDDS preconcentrate, 37 °C, organic solvent or mixture, Imwitor 988:Kolliphor RH40:Transcutol P (%) 30:60:10, 37 °C, read-out: APR solubility (loading capacity of SNEDDS preconcentrate)): 17000 µg/mL (≈ 31.9 mM)
- solubility at 24 h ([3]; buffer pH 1.2, 37 °C, pH 1.2, simulated gastric fluid, buffer pH 1.2, 37 °C, 24 h, read-out: APR solubility): 15.6 µg/mL (≈ 0.0293 mM)
- solubility at 24 h ([3]; buffer pH 4.5, 37 °C, pH 4.5, aqueous buffer, buffer pH 4.5, 37 °C, 24 h, read-out: APR solubility): 0.79 µg/mL (≈ 0.00148 mM)
- APR solubility ([3]; buffer pH 6.8, 37 °C, 24 h): < LOD
- APR solubility ([3]; buffer pH 7.4, 37 °C, 24 h): < LOD

Reference: article PMC8621193, “In Vitro Evaluation of a Solid Supersaturated Self Nanoemulsifying Drug Delivery System (Super-SNEDDS) of Aprepitant for Enhanced Solubility” (Pharmaceuticals, 2021)
